Assay results as given in patent US20050282755A1, “Compositions having antimicrobial activity and uses thereof” (priority 2004, published 2005).
In brackets after ≈: the same amount, converted by molar mass. Non-standard residues stand in square brackets, D forms with d. Residues, ends and D or L forms follow the SMILES beside them. *: point of attachment. Lauroyl = CCCCCCCCCCCC(=O)*

Experiments:
Format in all cases: cell-based
[1] = test system: Propionibacterium acnes ATCC 6919; assay: MIC, agar dilution method NCCLS M11-A6, Brucella agar, anaerobic (Table 9, superscript c); details: ATCC 6919
Method in brief: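 Agar dilution per NCCLS M11-A6 on Brucella agar; final inoculum 1.5×10^8 CFU/milliliter applied to plates, incubated 48-96 hours at 37° C. under anaerobic (GasPak) conditions. MIC = lowest peptide concentration with no colony growth.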

[2] = test system: Pseudomonas aeruginosa ATCC 27853; assay: MIC, NCCLS M7-A6 broth microdilution (Table 9, no superscript); details: ATCC 27853
Method in brief: (§1)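 MIC determined by microdilution in cation-adjusted Mueller Hinton broth after overnight growth at 37° C, defined as the lowest peptide level lacking turbidity.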

[3] = test system: Staphylococcus epidermidis ATCC 12228; assay: as above; details: ATCC 12228
Method in brief: as §1

Salmonella dublin (Lane) = assay: as above
Method in brief: as §1

[4] = test system: Escherichia coli ATCC 25922; assay: as above; details: ATCC 25922
Method in brief: as §1

[5] = test system: Candida albicans ATCC 18804; assay: MIC in yeasts, NCCLS M27-A2 broth microdilution, RPMI 1640 (Table 9, letter e); details: ATCC 18804
Method in brief: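 Broth microdilution per NCCLS M27-A2 in RPMI 1640 with glutamine and phenol red, final inoculum 0.5×10^3–2.5×10^3 CFU/milliliter. Incubated 24 to 48 hours at 37° C; MIC is the lowest peptide concentration with no visible growth.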

[6] = test system: Staphylococcus aureus ATCC 29213; assay: MIC, NCCLS M7-A6 broth microdilution, cation-adjusted Mueller Hinton broth (Table 9, no superscript); details: ATCC 29213
Method in brief: as §1

| SMILES | MIC P. acnes [1] | MIC P. aeruginosa [2] | MIC S. epidermidis [3] | MIC S. dublin (Salmonella dublin (Lane)) | MIC E. coli [4] | MIC C. albicans [5] | MIC S. aureus [6] |
| --- | --- | --- | --- | --- | --- | --- | --- |
| CCCCCCCCCCCC(=O)N[C@@H](C(=O)N[C@H](CCCNC(=N)N)C(=O)N[C@@H](C(=O)N[C@H](C)C(=O)N[C@H](CCCNC(=N)N)C(=O)N[C@@H](C(=O)NCC(=O)N[C@H](CCCNC(=N)N)C(=O)N[C@H](CO)C(=O)N[C@H](CCCNC(=N)N)C(=O)N[C@H](Cc1c[nH]c2ccccc12)C(=O)N[C@H](CCCNC(=N)N)C(=O)N[C@H](CC(=O)O)C(=O)N[C@@H](C(=O)N[C@H](C)C(=O)N[C@H](CCCNC(=N)N)C(=O)N[C@H](CC(N)=O)C(=O)N[C@H](Cc1ccccc1)C(=O)N[C@H](CCSC)C(=O)N[C@H](CCCNC(=N)N)C(N)=O)C(C)C)[C@H](C)O)C(C)C)[C@H](C)O [Peptide 78, Lauryl-trvartgrsrwrdvarnfmr-NH2] (Lauroyl-[dT][dR][dV][dA][dR][dT]G[dR][dS][dR][dW][dR][dD][dV][dA][dR][dN][dF][dM][dR]-NH2) | 32c ug/mL | 8 µg/mL (≈ 2.99 µM) | 1 µg/mL (≈ 0.374 µM) | 8 µg/mL (≈ 2.99 µM) | 8 µg/mL (≈ 2.99 µM) | 8e ug/mL | 8 µg/mL (≈ 2.99 µM) |
| CCCCCCCCCCCC(=O)N[C@@H](CCCNC(=N)N)C(=O)N[C@@H](CO)C(=O)N[C@@H](CCCNC(=N)N)C(=O)N[C@@H](Cc1c[nH]c2ccccc12)C(=O)N[C@@H](CCCNC(=N)N)C(=O)N[C@@H](CC(=O)O)C(=O)N[C@H](C(=O)N[C@@H](C)C(=O)N[C@@H](CCCNC(=N)N)C(=O)N[C@@H](CC(N)=O)C(=O)N[C@@H](Cc1ccccc1)C(=O)N[C@@H](C)C(=O)N[C@@H](CCCNC(=N)N)C(N)=O)C(C)C [Peptide 97, Lauryl-RSRWRDVARNFAR-NH2] (Lauroyl-RSRWRDVARNFAR-NH2) | 64c ug/mL | 32 µg/mL (≈ 17.1 µM) | 2 µg/mL (≈ 1.07 µM) | 32 µg/mL (≈ 17.1 µM) | 32 µg/mL (≈ 17.1 µM) | 8e ug/mL | 16 µg/mL (≈ 8.55 µM) |

Second part, the compound after the results:

| MIC P. acnes [1] | MIC P. aeruginosa [2] | MIC S. epidermidis [3] | MIC S. dublin (Salmonella dublin (Lane)) | MIC E. coli [4] | MIC C. albicans [5] | MIC S. aureus [6] | SMILES |
| --- | --- | --- | --- | --- | --- | --- | --- |
| >64c ug/mL | 64 µg/mL (≈ 36.1 µM) | 8 µg/mL (≈ 4.51 µM) | 16 µg/mL (≈ 9.01 µM) | 16 µg/mL (≈ 9.01 µM) | 16e ug/mL | 4 µg/mL (≈ 2.25 µM) | CCCCCCCCCCCC(=O)N[C@@H](CCCNC(=N)N)C(=O)N[C@@H](CO)C(=O)N[C@@H](CCCNC(=N)N)C(=O)N[C@@H](Cc1c[nH]c2ccccc12)C(=O)N[C@@H](CCCNC(=N)N)C(=O)N[C@@H](CC(=O)O)C(=O)N[C@H](C(=O)N[C@@H](C)C(=O)N[C@@H](CCCNC(=N)N)C(=O)N[C@@H](CC(N)=O)C(=O)N[C@@H](Cc1ccccc1)C(=O)N[C@@H](CCSC)C(N)=O)C(C)C [Peptide 98, Lauryl-RSRWRDVARNFM-NH2] (Lauroyl-RSRWRDVARNFM-NH2) |
| >64c ug/mL | >64 µg/mL | 4 µg/mL (≈ 2.43 µM) | >64 µg/mL | 32 µg/mL (≈ 19.5 µM) | 32e ug/mL | 4 µg/mL (≈ 2.43 µM) | CCCCCCCCCCCC(=O)N[C@@H](CCCNC(=N)N)C(=O)N[C@@H](CO)C(=O)N[C@@H](CCCNC(=N)N)C(=O)N[C@@H](Cc1c[nH]c2ccccc12)C(=O)N[C@@H](CCCNC(=N)N)C(=O)N[C@@H](CC(=O)O)C(=O)N[C@H](C(=O)N[C@@H](C)C(=O)N[C@@H](CCCNC(=N)N)C(=O)N[C@@H](CC(N)=O)C(=O)N[C@@H](Cc1ccccc1)C(N)=O)C(C)C [Peptide 99, Lauryl-RSRWRDVARNF-NH2] (Lauroyl-RSRWRDVARNF-NH2) |
| >64c ug/mL | >64 µg/mL | 16 µg/mL (≈ 10.7 µM) | >64 µg/mL | >64 µg/mL | 32e ug/mL | 8 µg/mL (≈ 5.34 µM) | CCCCCCCCCCCC(=O)N[C@@H](CCCNC(=N)N)C(=O)N[C@@H](CO)C(=O)N[C@@H](CCCNC(=N)N)C(=O)N[C@@H](Cc1c[nH]c2ccccc12)C(=O)N[C@@H](CCCNC(=N)N)C(=O)N[C@@H](CC(=O)O)C(=O)N[C@H](C(=O)N[C@@H](C)C(=O)N[C@@H](CCCNC(=N)N)C(=O)N[C@@H](CC(N)=O)C(N)=O)C(C)C [Peptide 100, Lauryl-RSRWRDVARN-NH2] (Lauroyl-RSRWRDVARN-NH2) |
